Data as given in article PMC9031227, “Structure-Activity Relationship Investigations of Novel Constrained Chimeric Peptidomimetics of SOCS3 Protein Targeting JAK2” (Pharmaceuticals, 2022).
Entries after “also recorded” stand apart in the source; their conditions may differ. Where a SMILES comes first, the peptide text is derived from it. Bridges are numbered along the chain shown (N, C = ends). Where no end group is shown, it is not given here. [ ]: non-standard residue; d: D form. R8 = C=CCCCCCC[C@@](C)(N)C(=O)O; S5 = C=CCCC[C@](C)(N)C(=O)O; βAla = NCCC(=O)O

What was measured:
[1] = molecular target: T1, His-tagged Catalytic Domain of JAK2 (residues 826–1132) (Homo sapiens, UniProt O60674); assay: MicroScale Thermophoresis (MST) binding to JAK2 catalytic domain; conditions: RED-tris-NTA labelled His-JAK2 catalytic domain, 25 °C, 50 mM Tris-HCl, 150 mM NaCl, 0.05% Brij35, 1 mM DTT, 10% glycerol, 15% TFE, pH 7.5, Langmuir isotherm fit
T1 construct: His-tagged Catalytic Domain of JAK2 (residues 826–1132); purchased Carna Biosciences
T1 sequence (O60674 826-1132): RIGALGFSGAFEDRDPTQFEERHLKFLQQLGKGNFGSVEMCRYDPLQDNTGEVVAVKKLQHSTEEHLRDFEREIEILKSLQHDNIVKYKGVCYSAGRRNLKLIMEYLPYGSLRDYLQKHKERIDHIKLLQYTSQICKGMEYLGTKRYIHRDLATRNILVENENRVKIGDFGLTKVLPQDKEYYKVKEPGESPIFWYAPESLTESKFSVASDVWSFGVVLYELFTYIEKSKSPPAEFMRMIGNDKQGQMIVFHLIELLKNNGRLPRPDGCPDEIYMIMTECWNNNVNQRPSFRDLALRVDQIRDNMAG
Protocol: MST experiments were carried out with a Monolith NT 115 system (NanoTemper Technologies, München, Germania) equipped with 40% LED and 40% IR-laser power. […] The protein concentration was adjusted to 200 nM in labeling buffer (Nano Temper Technologies), while the dye concentration was set to 100 nM. Equal volumes (100 μL) of protein and fluorescent dye solutions were mixed and incubated at room temperature in the dark for 30 min. KIRCONG chim analogues were used in the following concentrations: KIRCONG amide 459 μM, KIRCONG disulfide 470 μM, KIRCONG i/i+5 525 μM, and KIRCONG i/i+7 585 μM in labeling buffer. Standard capillaries were employed for analysis, at 25 °C in 50 mM Tris-HCl, 150 mM NaCl, 0.05% Brij35, 1 mM DTT, 10% glycerol, 15% TFE buffer at pH 7.5, as already reported. The equation implemented by the software MO-S002 MO Affinity Analysis, used for fitting data at different concentrations, is based on Langmuir binding isotherm.
To evaluate the ability of KIRCONG analogues to recognize JAK2 catalytic domain, in vitro MST experiments were carried out (Figure 5), keeping JAK2 concentration constant and increasing ligands’ concentrations.

[2] = Solubility observations in TFE/aqueous mixtures (CD and NMR samples); assay type: physicochemical
Protocol: CD spectroscopy experiments were carried out by employing a Jasco J-815 spectropolarimeter (JASCO, Tokyo, Japan), at room temperature in the spectral range 190–260 nm and spectra are averaged over two scans, to which blanks were subtracted. CD signals were converted to mean residue ellipticity with deg* cm^2*dmol^−1*res^−1 as units. Scan speed value was 20 nm/min, band width 2.0 nm, resolution 0.2 nm, sensitivity 50 mdeg and response 4 s. Samples were prepared by dilution of freshly prepared stock solutions in 100% TFE (2,2,2-Trifluoroethanol) (1 mM on average). In the CD samples compound concentrations were 100 μM. Spectra were acquired in a quartz cuvette with a path-length of 0.1 cm in mixtures TFE/phosphate buffer, 10 mM at pH 7.4 [52].
NMR spectra of KIRCONG i/i+5 and KIRCONG i/i+7 stapled peptides were registered at 25 °C on a Varian Unity Inova 600 MHz spectrometer provided with a cold probe. […] NMR spectra for KIRCONG i/i+7 were recorded in H2O/TFE 60/40 v/v (peptide concentration 411 μM, pH 4.65). […] To conduct NMR structural analyses the following 2D [^1H, ^1H] experiments were recorded: TOCSY (Total Correlation Spectroscopy), NOESY (Nuclear Overhauser Enhancement Spectroscopy), ROESY (Rotating Frame Overhauser Enhancement Spectroscopy) and DQFCOSY (Double Quantum-Filtered Correlated Spectroscopy). […]

[3] = molecular target: T2, His-tagged Catalytic Domain of JAK2 (residues 826–1132) (UniProt O60674 826-1132, RED-tris-NTA dye bound to the His tag (His-Tag labeling Kit RED-tris-NTA)); assay: MST; Monolith NT 115; His-tagged JAK2 catalytic domain labelled with RED-tris-NTA kept constant, peptides in increasing concentrations; standard capillaries, 25 °C, 50 mM Tris-HCl, 150 mM NaCl, 0.05% Brij35, 1 mM DTT, 10% glycerol, 15% TFE, pH 7.5; fit by Langmuir binding isotherm; conditions: both partners purified
T2 construct: JAK2 (Janus Kinase 2), catalytic domain, residues 826-1132; also called JAK2 catalytic domain; Janus Kinase 2; source: bought: Carna Biosciences
T2 sequence (O60674 826-1132): as above

solubility at NMR concentration in 15% TFE ([2]; H2O/TFE 85/15 v/v, NMR peptide concentration 411 µM) | solubility in TFE/phosphate buffer (CD sample) ([2]; TFE/phosphate buffer 10 mM pH 7.4, CD sample concentration 100 µM, diluted from 100% TFE stock) | Kd [3] | Molecule | KD [1]
poorly soluble | not soluble | – | CC(C)C[C@@H]1NC(=O)[C@](C)(NC(=O)[C@H](Cc2ccc(O)cc2)NC(=O)[C@H](CCC(=O)O)NC(=O)[C@H](CO)NC(=O)[C@H](CCCCN)NC(=O)[C@H](CO)NC(=O)[C@H](CO)NC(=O)[C@@H](N)Cc2ccccc2)CCCCCC/C=C/CCC[C@@](C)(C(=O)N[C@H](C(=O)N[C@H](C(=O)NCC(=O)O)[C@@H](C)O)C(C)C)NC(=O)[C@H](CO)NC(=O)[C@H](Cc2c[nH]c3ccccc23)NC(=O)[C@H](Cc2ccc(O)cc2)NC(=O)[C@H](Cc2ccccc2)NC(=O)CCNC1=O [KIRCONG i/i+7] (H-FSSKSEY[R8]L[βAla]FYWS[S5]VTG-OH; staple (E) 8-15) | did not allow to obtain KD values; also recorded: No binding
– | – | 8 µM | FSSKSEYQL[S5]FYWS[S5]VTG-OH (not fully specified; bridges not given here) [linear version of KIRCONG i/i+5 peptide] | –
